Source: PubChem BioAssay (NCI)
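Test compounds were applied to cells in 96-well plates for 48 hours at 5 doses. Here, GI50 denotes the concentration required for 50% inhibition of growth. Definition used: TGI = concentration required for complete inhibition of growth.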

Experiments:
Test in all cases: inhibition of tumour cell growth, NCI panel, 48 h
TK-10 renal = tested on: TK-10 renal
MDA-MB-231 breast = tested on: MDA-MB-231 breast
K-562 leukemia = tested on: K-562 leukemia
SF-539 CNS = tested on: SF-539 CNS
UACC-62 melanoma = tested on: UACC-62 melanoma
MDA-MB-435 = tested on: MDA-MB-435
RXF 393 renal = tested on: RXF 393 renal
SNB-19 CNS = tested on: SNB-19 CNS
OVCAR-4 ovarian = tested on: OVCAR-4 ovarian
A498 renal = tested on: A498 renal
IGROV1 ovarian = tested on: IGROV1 ovarian
MOLT-4 leukemia = tested on: MOLT-4 leukemia
A549 NSCLC = tested on: A549 NSCLC
U251 CNS = tested on: U251 CNS
SK-MEL-2 melanoma = tested on: SK-MEL-2 melanoma
ACHN renal = tested on: ACHN renal
RPMI-8226 leukemia = tested on: RPMI-8226 leukemia
SW-620 colon = tested on: SW-620 colon
HS 578T breast = tested on: HS 578T breast
SNB-75 CNS = tested on: SNB-75 CNS
COLO 205 colon = tested on: COLO 205 colon
786-0 renal = tested on: 786-0 renal
CAKI-1 renal = tested on: CAKI-1 renal
SK-MEL-5 melanoma = tested on: SK-MEL-5 melanoma
DU-145 prostate = tested on: DU-145 prostate
BT-549 breast = tested on: BT-549 breast
OVCAR-8 ovarian = tested on: OVCAR-8 ovarian
HOP-62 NSCLC = tested on: HOP-62 NSCLC
SN12C renal = tested on: SN12C renal

CN1CCN(Cc2ccc(NC(=O)c3cncc(C#Cc4cnc5ccc(O[C@@H]6CCOC6)nn45)c3)cc2C(F)(F)F)CC1
GI50 (TK-10 renal): 0.177 µM
TGI (TK-10 renal): 0.632 µM
GI50 (MDA-MB-231 breast): 0.0825 µM
TGI (MDA-MB-231 breast): 0.475 µM
GI50 (K-562 leukemia): 0.005 µM
TGI (K-562 leukemia): 1.79 µM
GI50 (SF-539 CNS): 0.0998 µM
TGI (SF-539 CNS): 0.715 µM
GI50 (UACC-62 melanoma): 0.165 µM
TGI (UACC-62 melanoma): 0.809 µM
GI50 (MDA-MB-435): 0.125 µM
TGI (MDA-MB-435): 0.653 µM
GI50 (RXF 393 renal): 0.143 µM
TGI (RXF 393 renal): 0.405 µM
GI50 (SNB-19 CNS): 0.301 µM
TGI (SNB-19 CNS): 1.22 µM
GI50 (OVCAR-4 ovarian): 0.155 µM
TGI (OVCAR-4 ovarian): 0.94 µM
GI50 (A498 renal): 0.606 µM
TGI (A498 renal): 1.25 µM
GI50 (IGROV1 ovarian): 0.0894 µM
TGI (IGROV1 ovarian): 0.587 µM
GI50 (MOLT-4 leukemia): 0.0818 µM
TGI (MOLT-4 leukemia): 1.32 µM
GI50 (A549 NSCLC): 0.195 µM
TGI (A549 NSCLC): 0.693 µM
GI50 (U251 CNS): 0.27 µM
TGI (U251 CNS): 0.933 µM
GI50 (SK-MEL-2 melanoma): 0.114 µM
TGI (SK-MEL-2 melanoma): 0.321 µM
GI50 (ACHN renal): 0.171 µM
TGI (ACHN renal): 0.67 µM
GI50 (RPMI-8226 leukemia): 0.265 µM
TGI (RPMI-8226 leukemia): 1.26 µM
GI50 (SW-620 colon): 0.153 µM
TGI (SW-620 colon): 0.623 µM
GI50 (HS 578T breast): 0.127 µM
TGI (HS 578T breast): 0.565 µM
GI50 (SNB-75 CNS): 0.124 µM
TGI (SNB-75 CNS): 0.51 µM
GI50 (COLO 205 colon): 0.109 µM
TGI (COLO 205 colon): 0.22 µM
GI50 (786-0 renal): 0.265 µM
TGI (786-0 renal): 0.833 µM
GI50 (CAKI-1 renal): 0.122 µM
TGI (CAKI-1 renal): 0.596 µM
GI50 (SK-MEL-5 melanoma): 0.586 µM
TGI (SK-MEL-5 melanoma): 1.22 µM
GI50 (DU-145 prostate): 0.187 µM
TGI (DU-145 prostate): 0.642 µM
GI50 (BT-549 breast): 0.646 µM
TGI (BT-549 breast): 1.29 µM
GI50 (OVCAR-8 ovarian): 0.16 µM
TGI (OVCAR-8 ovarian): 0.634 µM
GI50 (HOP-62 NSCLC): 0.176 µM
TGI (HOP-62 NSCLC): 0.641 µM
GI50 (SN12C renal): 0.12 µM
TGI (SN12C renal): 0.636 µM
